Here are results for 2 molecules from US20080234363A1, “Antitumoral Compounds” (PHARMA MAR, S.A., priority 2005, published 2008).

One data set deals with MDA-MB-231. Kind of data set: SRB antitumor screening, MDA-MB-231. In kind it is cell-based, human. As to conditions: Breast MDA-MB-231, SRB, 48 hours exposure; for GI50: Homo sapiens. The text has this:
(§1) The finality of these assays was to interrupt the growth of a “in vitro” tumor cell culture by means of a continued exhibition of the cells to the sample to be testing.
(§2) A colorimetric type of assay, using sulforhodamine B (SRB) reaction has been adapted for a quantitative measurement of cell growth and viability [following the technique described by Philip Skehan et al. (1990), New colorimetric cytotoxicity assay for anticancer drug screening, J. Natl. Cancer Inst., 82:1107-1112].
(§3) This form of assay employed 96 well cell culture microplates of 9 mm diameter (Faircloth et al. Methods in cell science, (1988), 11(4), 201-205; Mosmann, Journal of. Immunological Methods (1983), 65(1-2), 55-63. Most of the cell lines were obtained from American Type Culture Collection (ATCC) derived from different human cancer types.
(§4) Cells were maintained in RPMI 1640 10% FBS, supplemented with 0.1 g/L penicillin and 0.1 g/L streptomycin sulphate and then incubated at 37° C., 5% CO2 and 98% humidity. For the experiments, cells were harvested from subconfluent cultures using trypsin and resuspended in fresh medium before plating.
(§5) Cells were seeded in 96 well microtiter plates, at 5×10^3 cells per well in aliquots of 195 μL medium, and they were allowed to attach to the plate surface by growing in drug free medium for 18 hours. Afterward, samples were added in aliquots of 5 μL in a ranging from 10 to 10^−8 μg/mL, dissolved in DMSO:EtOH:PBS (0.5:0.5:99). After 48 hours exposure, the antitumor effect were measured by the SRB methodology: cells were fixed by adding 50 μL of cold 50% (wt/vol) trichloroacetic acid (TCA) and incubated for 60 minutes at 4° C. Plates were washed with deionised water and dried. […] Optical densities were read on an automated spectrophotometric plate reader at a single wavelength of 490 nm.
(§6) The values for mean +/−SD of data from triplicate wells were calculated. Some parameters for cellular responses could be calculated: GI=growth inhibition, TGI=total growth inhibition (cytostatic effect) and LC=cell killing (cytotoxic effect).

Another data set relates to HT29. Kind of data set: SRB antitumor screening, HT29. The format is cell-based, human. To be noted: Colon HT29, SRB, 48 hours exposure; for GI50: Homo sapiens, HT-29.
Description: as §1, §2, §3, §4, §5, §6

The next data set concerns A549. Kind of data set: SRB antitumor screening, A549. In kind it is cell-based. To be noted: for CC50 / GI50: Homo sapiens; for CC50: A549, 48 h, read-out: LC50; for GI50 / TGI: NSCL A549, SRB, 48 hours exposure.
Description: as §1, §2, §3, §4
Cells were seeded in 96 well microtiter plates, at 5×10^3 cells per well in aliquots of 195 μL medium, and they were allowed to attach to the plate surface by growing in drug free medium for 18 hours. Afterward, samples were added in aliquots of 5 μL in a ranging from 10 to 10^−8 μg/mL, dissolved in DMSO:EtOH:PBS (0.5:0.5:99). After 48 hours exposure, the antitumor effect were measured by the SRB methodology: cells were fixed by adding 50 μL of cold 50% (wt/vol) trichloroacetic acid (TCA) and incubated for 60 minutes at 4° C. Plates were washed with deionised water and dried. One hundred μL of SRB solution (0.4% wt/vol in 1% acetic acid) was added to each microtiter well and incubated for 10 minutes at room temperature. Unbound SRB was removed by washing with 1% acetic acid. Plates were air dried and bound stain was solubilized with Tris buffer. Optical densities were read on an automated spectrophotometric plate reader at a single wavelength of 490 nm.
as §6

For data set [1], the system named is EGFR intracellular signaling (AP-1 activity). The experiment in a line: EGFR signalling inhibition assay (AP-1 luciferase reporter, HeLa-AP1). As to conditions: Homo sapiens; HeLa-AP1 cells, EGF 25 ng/mL stimulation, 18 hours. In kind it is cell-based. The text has this:
In this assay, the signal transduction pathway triggered by the activated Epidermal Growth Factor (EGF) membrane receptor is indirectly quantified using an EGF-responsive, API-mediated, luciferase reporter system.
HeLa-AP1, a subclone of HeLa cell line (human cervix carcinoma, ATCC# CCL-2) stably transfected with a construct containing the luciferase reporter gene under the control of the proximal promoter of the human collagenase-3 gene (consensus AP-1 response element TGACTCA at positions −56/−50) were used. Cells were maintained in DMEM supplemented with 10% FCS and 100 units/mL penicillin and streptomycin at 37° C. and 5% CO2. HeLa-AP1 cells were pre-treated with the indicated compounds for 30 min before stimulation with EGF (25 ng/mL). After further 18 hours incubation, cell survival was estimated, for normalisation, by loading cells for 30 min with the vital fluorescent probe calcein-AM (0.5 μM). Fluorescence was quantified using a 1420 Victor^2 plate multilabel counter (Wallac). After that, cells were lysed and assayed for luciferase activity using the Bright-Glo system (Promega) and a 1450 Microbeta plate luminescence counter (Wallac-Trilux). Results were expressed as percentage of AP-1 activity inhibition as compared to control, untreated cells.
A general note: A reporter such as luciferase makes a cellular process visible.

A short description of data set [2]: Single-administration dose range finding in mice (MTD). To be noted: mouse, in vivo; CD-1 male mice, single intravenous administration, vehicle micelles. Here is the method: The finality of this assay was to determine the maximum tolerated dose (MTD) in mice by a single administration of the drug.
CD-1 male mice were used for this study, weighing ca. 25 g were randomly allocated to several dosing groups. Animals received a single intravenous administration of Stigmatellin A (CAS Number: 91682-96-1, purchased from Fluka (Ref: 85865)) dosed into the lateral vein of the tail. […] Mortality was recorded daily. The Maximum Tolerated Dose (MTD) was determined based on the mortality found in each dose level, calculated when mortality vs. dose is 0%.

The target of the next data set is T1, cytochrome b-cl segment (Bos taurus, UniProt P00157+P13272).
T1 construct: bovine heart submitochondrial particles at the site of the cytochrome b-cl segment; host or cells: bovine heart submitochondrial particles
To be noted: bovine heart submitochondrial particles; cited from earlier work.

Data set [3] concerns photosynthetic electron transport. To be noted: cited from earlier work.
A further data set has as its system CD-1 male mice. Kind of data set: Multiple-administration dose range finding in mice (MTMD). The format is in vivo. As for the experimental part: The finality of this assay was to determine the maximum tolerated multiple dose (MTMD) in mice by a multiple administration of the drug.
CD-1 male mice were used for this study, weighing ca. 25 g were randomly allocated to several dosing groups. Animals received a multiple doses by either intravenous or extravascular (intraperitoneal) route. […] Mortality was daily recorded. The MTMD was determined based on the mortality found in each dose level, calculated when mortality vs. dose is 0%.

Usually GI50 stands for the concentration giving 50% growth inhibition. Lower therefore signals greater sensitivity of the cells. A word on the IC50: it is the concentration that gives 50% inhibition. A lower IC50 goes with higher potency. In the data set on MDA-MB-231, `CCCC(C)/C=C/C=C/[C@H](OC)[C@@H](C)[C@@H](OC)[C@@H](C)CCc1oc2c(O)c(OC)cc(OC)c2c(=O)c1C` (stereo partly shown) [Compound I] registered a TGI of 3.20E−6 Molar and a concentration for 50% growth inhibition (GI50) of 0.153 µM. Besides, in the data set with HT29, the TGI stood at 5.84E−6 Molar and the GI50 was determined as 0.867 µM. Besides, in the data set with A549, the CC50 worked out at 4.15 µM, halving of growth (GI50) required 0.0923 µM and the TGI came to 5.28E−7 Molar. In data set [1], this molecule displayed an IC50 of 0.226 µM.
`C/C=C(C)/C=C/C=C/C(OC)C(C)C(OC)C(C)CCc1oc2c(O)c(OC)cc(OC)c2c(=O)c1C` (stereo not shown) [Stigmatellin A] registered an MTD at 4 days in data set [2] of 0.44 mg/kg. The GI50 in the data set with MDA-MB-231 is 0.389 µM; with HT29, 0.991 µM; in the data set with A549 it was 0.602 µM. Besides, at cytochrome b-cl segment, the inhibitory potency entry is “identical with that of antimycin and myxothiazol”. In addition, the “inhibition of photosynthetic electron transport” value in data set [3] was “powerful inhibitor”. Besides, in the data set with A549, the CC50 worked out at 7.58 µM. Moreover, the TGI in the data set on A549 turned out to be 1.94E−6 Molar. This molecule also displayed an IC50 in data set [1] of 9.72 µM. Moreover, the MTMD in the data set with CD-1 male mice (ip/5DD, liposomes at 0.035 mg/mL) was determined as 0.28 mg/kg; in the data set on CD-1 male mice (iv/5DD, liposomes at 0.096 mg/mL), 0.14 mg/kg.
